Assay results taken from patent publication US11427861B2, “Methods for identifying and modulating co-occurant cellular phenotypes” (MASSACHUSETTS INSTITUTE OF TECHNOLOGY, priority 2016, dated 2022).

Test system: dendritic cells
Experiment: Induction of the functional dendritic cell subset by immunomodulators
Assay type: cell-based, human
Conditions: dendritic cells of normal donors; TLR3 ligand as immunomodulator

Which “population of the functional subset of dendritic cells (CD64 and PD-L1 surface expression)” value does the source give for poly I:C here?
Its value is “induced a larger population of the functional subset of dendritic cells”.
